Measurements reported in publication PMC6500773 (Psychopharmacology, 2018).
Read-outs that look alike come from different tables or passages of the source.

How the values were obtained:
hNET [1] = molecular target: T1, hNET (Homo sapiens, UniProt P23975); assay: biochemical; format: binding
hNET [2] = molecular target: T1, hNET; assay: cell-based
hSERT [3] = molecular target: T2, hSERT (Homo sapiens, UniProt P31645); assay: Inhibition of [125I]RTI-55 binding, HEK-hSERT membranes
hDAT [4] = molecular target: T3, hDAT (Homo sapiens, UniProt Q01959); assay: Inhibition of [3H]DA uptake by HEK-hDAT cells; format: cell-based; settings: for Ratio DAT/SERT: 1/(DAT IC50) divided by 1/(SERT IC50), uptake, higher = more DAT selective
T3 sequence (Q01959 whole entry): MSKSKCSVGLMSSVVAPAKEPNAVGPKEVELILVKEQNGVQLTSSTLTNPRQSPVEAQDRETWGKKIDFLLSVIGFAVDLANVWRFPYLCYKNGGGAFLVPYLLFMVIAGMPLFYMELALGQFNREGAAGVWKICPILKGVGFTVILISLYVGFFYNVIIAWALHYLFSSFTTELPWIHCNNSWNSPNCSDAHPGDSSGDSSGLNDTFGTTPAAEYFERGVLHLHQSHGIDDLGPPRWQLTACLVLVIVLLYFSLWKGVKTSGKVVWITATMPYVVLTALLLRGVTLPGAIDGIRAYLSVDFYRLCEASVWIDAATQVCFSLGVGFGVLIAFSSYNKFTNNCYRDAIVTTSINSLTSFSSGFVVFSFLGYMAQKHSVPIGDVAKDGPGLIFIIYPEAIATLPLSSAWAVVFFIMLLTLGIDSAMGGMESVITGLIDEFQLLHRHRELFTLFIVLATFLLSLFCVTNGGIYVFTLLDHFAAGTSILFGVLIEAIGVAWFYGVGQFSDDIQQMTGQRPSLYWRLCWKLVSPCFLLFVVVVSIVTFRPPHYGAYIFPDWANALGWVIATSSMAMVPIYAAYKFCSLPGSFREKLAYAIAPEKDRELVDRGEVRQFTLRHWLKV

hSERT [5] = molecular target: T2, hSERT; assay: Drug-induced release of preloaded [3H]5-HT from HEK-hSERT cells; format: cell-based; settings: for releasing efficacy at hSERT: [3H]5-HT release; for % maximum release ± sem, hSERT [3H]5-HT: relative to maximal AUC induced by METH (0.3–1 mM)
hDAT [6] = molecular target: T3, hDAT; assay: Inhibition of [125I]RTI-55 binding, HEK-hDAT membranes
hSERT [7] = molecular target: T2, hSERT; assay: Inhibition of [3H]5-HT uptake by HEK-hSERT cells; format: cell-based; settings: for selectivity for SERT over DAT (uptake potency): uptake inhibition potencies
hDAT [8] = molecular target: T3, hDAT; assay: Drug-induced release of preloaded [3H]DA from HEK-hDAT cells; format: cell-based; settings: for % maximum release ± sem, hDAT [3H]DA: relative to maximal AUC induced by METH (1 or 10 μM); for releasing efficacy at hDAT: [3H]DA release
hNET [9] = molecular target: T1, hNET; assay: Drug-induced release of preloaded [3H]NE from HEK-hNET cells; format: cell-based; settings: for % maximum release ± sem, hNET [3H]NE: relative to maximal AUC induced by METH (0.3 or 1 μM); for releasing efficacy at hNET: [3H]NE release
hDAT [10] = molecular target: T3, hDAT; settings: cited from earlier work; for Ratio DAT/SERT: 1/(DAT IC50) divided by 1/(SERT IC50), uptake, ref Eshleman et al. 2017
hNET [11] = molecular target: T1, hNET; settings: read-out: Inhibition of [3H]neurotransmitter uptake IC50 ± sem, hNET [3H]NE; HEK-hNET cells; ref Eshleman et al. 2017; cited from earlier work
[12] = read-out: Inhibition of [3H]neurotransmitter uptake IC50 ± sem, hNET [3H]NE, HEK-hNET cells
[13] = read-out: Inhibition of [125I]RTI-55 binding Ki ± sem, hNET, HEK-hNET membranes
[14] = read-out: Inhibition of [125I]RTI-55 binding Ki ± sem, hDAT, HEK-hDAT membranes

T1 sequence (P23975 whole entry): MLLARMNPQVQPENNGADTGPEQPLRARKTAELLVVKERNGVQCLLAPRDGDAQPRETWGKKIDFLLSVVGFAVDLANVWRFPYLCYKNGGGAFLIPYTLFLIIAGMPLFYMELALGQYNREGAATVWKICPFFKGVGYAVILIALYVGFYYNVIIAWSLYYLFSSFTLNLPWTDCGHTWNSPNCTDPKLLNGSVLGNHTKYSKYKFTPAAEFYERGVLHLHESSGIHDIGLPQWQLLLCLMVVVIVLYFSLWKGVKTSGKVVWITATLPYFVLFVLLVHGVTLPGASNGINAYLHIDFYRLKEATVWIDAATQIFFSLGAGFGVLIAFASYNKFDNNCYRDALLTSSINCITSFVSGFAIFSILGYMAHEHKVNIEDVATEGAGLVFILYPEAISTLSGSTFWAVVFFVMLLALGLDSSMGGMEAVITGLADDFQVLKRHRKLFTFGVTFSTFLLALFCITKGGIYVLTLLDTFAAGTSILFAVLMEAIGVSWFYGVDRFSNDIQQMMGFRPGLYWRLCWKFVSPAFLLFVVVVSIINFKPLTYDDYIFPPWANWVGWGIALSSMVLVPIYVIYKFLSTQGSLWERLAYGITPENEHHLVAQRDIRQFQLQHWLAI
T2 sequence (P31645 whole entry): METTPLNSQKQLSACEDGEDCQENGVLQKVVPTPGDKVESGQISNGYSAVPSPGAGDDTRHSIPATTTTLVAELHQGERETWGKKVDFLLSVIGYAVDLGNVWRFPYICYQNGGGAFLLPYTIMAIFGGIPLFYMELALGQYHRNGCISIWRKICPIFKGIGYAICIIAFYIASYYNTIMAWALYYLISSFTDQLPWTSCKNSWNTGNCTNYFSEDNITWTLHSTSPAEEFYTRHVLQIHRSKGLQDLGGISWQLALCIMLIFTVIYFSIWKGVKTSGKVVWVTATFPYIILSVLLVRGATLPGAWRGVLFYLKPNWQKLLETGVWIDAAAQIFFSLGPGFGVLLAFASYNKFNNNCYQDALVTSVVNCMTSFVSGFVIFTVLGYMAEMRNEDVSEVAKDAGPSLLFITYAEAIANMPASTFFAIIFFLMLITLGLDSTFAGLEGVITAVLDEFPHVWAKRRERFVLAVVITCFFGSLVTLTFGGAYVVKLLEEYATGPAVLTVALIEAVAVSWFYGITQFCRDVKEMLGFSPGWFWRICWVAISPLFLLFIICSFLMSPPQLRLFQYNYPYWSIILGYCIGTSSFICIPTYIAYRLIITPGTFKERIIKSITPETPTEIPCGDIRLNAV

Row | Compound | Ki (hNET [1]) | Ki (hSERT [3]) | IC50 (hDAT [4]) | Ratio DAT/SERT (hDAT [4]) | % maximum release ± sem, hSERT [3H]5-HT (hSERT [5]) | Ki (hDAT [6]) | IC50 (hSERT [7]) | % maximum release ± sem, hDAT [3H]DA (hDAT [8]) | % maximum release ± sem, hNET [3H]NE (hNET [9]) | Ratio DAT/SERT (hDAT [10]) | other results
1 | CNC(C)Cc1ccc2c(c1)CCO2 (centres unmarked) [5-MAPDB, 1-(2,3-dihydrobenzofuran-5-yl)-N-methylpropan-2-amine] | > 30000 nM | 8800 ± 1700 nM | 2790 ± 800 nM | 0.041 | 95.7 ± 8.9% | > 30000 nM | 113 ± 30 nM | 32 ± 13% | 64.2 ± 4.7% | – | IC50 (hNET [2]): 560 ± 180 nM; EC50 (hSERT [5]): 340 ± 35 nM; releasing efficacy at hSERT (hSERT [5]): fully efficacious; selectivity for SERT over DAT (uptake potency) (hSERT [7]): 25 fold; EC50 (hDAT [8]): 34700 ± 9600 nM; EC50 (hNET [9]): 840 ± 310 nM
2 | CN[C@@H](C)Cc1ccccc1 [METH, methamphetamine, reference compound] | 2510 ± 240 nM | 150000 ± 17000 nM | 97 ± 13 nM | 96 | 101.8 ± 3.1% | 4410 ± 430 nM | 9300 ± 1100 nM | 106.7 ± 2.3% | 107.5 ± 8.7% | – | IC50 (hNET [2]; [12]): 25.8 ± 3 nM; EC50 (hSERT [5]): 14500 ± 4200 nM; EC50 (hDAT [8]): 1200 ± 350 nM; EC50 (hNET [9]): 255 ± 78 nM
3 | CNC(COC)C(=O)c1ccc(C)cc1 (centres unmarked) [Mexedrone, 3-methoxy-2-(methylamino)-1-(p-tolyl)propan-1-one] | > 27600 nM | 22200 ± 6200 nM | 2750 ± 220 nM | 2.0 | 84 ± 13% | 8390 ± 540 nM | 5400 ± 1200 nM | 3.04 ± 0.61% | 12.5 ± 3.1% | – | IC50 (hNET [2]): 3190 ± 980 nM; EC50 (hSERT [5]): 26100 ± 9300 nM; releasing efficacy at hSERT (hSERT [5]): full efficacy; EC50 (hDAT [8]): > 100000 nM; releasing efficacy at hDAT (hDAT [8]): no hDAT efficacy; EC50 (hNET [9]): > 61000 nM; releasing efficacy at hNET (hNET [9]): minimal hNET efficacy
4 | CCCC(NCC)C(=O)c1ccc2c(c1)OCO2 (centres unmarked) [N-Et pentylone, N-ethyl pentylone] | – | – | – | 8.4 | 7.2 ± 1.4% | – | – | <1% | 15.6 ± 8.4% | – | Ki (hNET [1]; [13]): 2380 ± 620 nM; IC50 (hNET [2]; [12]): 114 ± 29 nM; fold increase in hDAT/hSERT selectivity (hDAT [4]; compared to pentylone): ~ 2 fold; Ki (hDAT [6]; [14]): 102 ± 15 nM
5 | CCCCCCC(C(=O)c1ccccc1)N1CCCC1 (centres unmarked) [PV9, 1-phenyl-2-(pyrrolidin-1-yl)octan-1-one] | 468 ± 33 nM | 2860 ± 430 nM | 50.2 ± 6.6 nM | >150 | – | 18 ± 3.7 nM | > 7400 nM | – | – | – | –
6 | CCCC(NC)C(=O)c1ccccc1 (centres unmarked) [Pentedrone] | – | – | – | – | – | – | – | – | – | 51 | IC50 (hNET [11]): 239 ± 67 nM
7 | CCCC(NC)C(=O)c1ccc2c(c1)OCO2 (centres unmarked) [Pentylone] | – | – | – | – | – | – | – | – | – | 4.9 | IC50 (hNET [11]): 650 ± 160 nM
8 | CCCC(Cc1ccccc1)N1CCCC1 (centres unmarked) [Prolintane, 1-[1-(phenylmethyl)butyl]-pyrrolidine] | 560 ± 190 nM | 2520 ± 330 nM | 100 ± 21 nM | 11 | – | 219 ± 19 nM | 1110 ± 350 nM | – | – | – | IC50 (hNET [2]): 46 ± 6.8 nM; fold higher hSERT uptake potency (hSERT [7]; compared to 4-F-α-PVP): 40 fold
9 | CCCC(C(=O)c1ccc2c(c1)CCCC2)N1CCCC1 (stereo not drawn) [TH-PVP, 3’,4’-tetramethylene-α-pyrrolidinovalerophenone] | – | – | – | 0.087 | <1% | – | – | <1% | <1% | – | Ki (hNET [1]; [13]): 6950 ± 340 nM; IC50 (hNET [2]; [12]): 2130 ± 81 nM; releasing efficacy at hSERT (hSERT [5]): minimal to no releasing efficacy; Ki (hDAT [6]; [14]): 3090 ± 300 nM; selectivity for SERT over DAT (uptake potency) (hSERT [7]): 12 fold; releasing efficacy at hDAT (hDAT [8]): minimal to no releasing efficacy; releasing efficacy at hNET (hNET [9]): minimal to no releasing efficacy; EC50 (hNET [9]; read-out: Drug-induced release of [3H]neurotransmitter EC50 ± sem, hNET [3H]NE, HEK-hNET cells): > 10000 nM
10 | CCNC(C)C(=O)c1ccc2c(c1)OCO2 (centres unmarked) [ethylone] | – | – | – | – | – | – | – | – | – | 0.27 | –
11 | CNC(C)C(=O)c1ccc(C)cc1 (centres unmarked) [mephedrone] | – | – | – | – | – | – | – | – | – | – | DAT selectivity (DAT/SERT) (hDAT [10]; ref Eshleman et al. 2013, Luethi et al. 2018): 5.2 fold
12 | CCCC(C(=O)c1ccccc1)N1CCCC1 (stereo not drawn) [α-PVP] | – | – | – | – | – | – | – | – | – | 2900 | IC50 (hNET [11]): 46 ± 18 nM
